Patent US5679515A, “Mycobacterial reporter strains and uses thereof” (PathoGenesis Corporation, priority 1994, dated 1997)
≈ marks a conversion by molar mass, not a printed value. Like-named read-outs stand apart in the source and are kept apart here.

Key:
[1] = system: Mycobacterium bovis BCG containing pMV361-lux (BCG:361-lux); assay: microbe, parasite or virus in culture; format: cell-based; conditions: Mycobacterium tuberculosis variant bovis BCG, 120 h, read-out: MIC BACTEC
[2] = system: Mycobacterium bovis BCG containing pMV361-lux (BCG:361-lux); assay: microbe, parasite or virus in culture; format: cell-based; conditions: for MIC: Mycobacterium tuberculosis variant bovis BCG, BCG
[3] = system: Mycobacterium bovis BCG containing pMV361-lux (BCG:361-lux); assay: microbe, parasite or virus in culture; format: cell-based; conditions: for MBC: Mycobacterium tuberculosis variant bovis BCG, BCG
rBCG:pMH30-lux [4] = system: rBCG:pMH30-lux; set-up: species or system BCG; BALB/C mice; conditions: mouse, in vivo
rBCG:pMH30-lux [5] = system: rBCG:pMH30-lux; set-up: species or system BCG; BALB/C mice; conditions: mouse, in vivo; remark: listed apart in the source

Compound	MIC [1]	similarity in BACTEC and BCG:pMV361-lux assays (susceptibility) [2]	MIC ([2]; 24 h)	MIC ([2]; 48 h)	MIC ([2]; 72 h)	MIC ([2]; 96 h)	MIC ([2]; 120 h)	MBC ([3]; 24 h)	MBC ([3]; 48 h)	MBC ([3]; 72 h)	MBC ([3]; 96 h)	MBC ([3]; 120 h)	lux activity in spleens vs untreated control mice (rBCG:pMH30-lux [4])	MBC value in words [3]	reduced luminescence in spleen vs untreated control (rBCG:pMH30-lux [5])	total reduction in luminescence in spleen (rBCG:pMH30-lux [5])	lux activity in spleens (rBCG:pMH30-lux [4])	rBCG-lux luminescence in spleens (rBCG:pMH30-lux [4])
NCC[C@H](O)C(=O)N[C@@H]1C[C@H](N)[C@@H](O[C@H]2O[C@H](CN)[C@@H](O)[C@H](O)[C@H]2O)[C@H](O)[C@H]1O[C@H]1O[C@H](CO)[C@@H](O)[C@H](N)[C@H]1O [Amikacin, amikacin]	0.13 µg/mL (≈ 0.222 µM)	comparable	> 2 µg/mL	> 2 µg/mL	0.5 µg/mL (≈ 0.854 µM)	0.25 µg/mL (≈ 0.427 µM)	0.25 µg/mL (≈ 0.427 µM)	2 µg/mL (≈ 3.42 µM)	0.5 µg/mL (≈ 0.854 µM)	0.5 µg/mL (≈ 0.854 µM)	0.25 µg/mL (≈ 0.427 µM)	0.25 µg/mL (≈ 0.427 µM)	substantially reduced lux activity	–	–	–	–	–
O=C(O)c1cn(C2CC2)c2cc(N3CCNCC3)c(F)cc2c1=O [Ciprofloxacin, ciprofloxacin]	0.25 µg/mL (≈ 0.754 µM)	comparable	> 2 µg/mL	> 2 µg/mL	0.5 µg/mL (≈ 1.51 µM)	0.5 µg/mL (≈ 1.51 µM)	0.5 µg/mL (≈ 1.51 µM)	> 2 µg/mL	> 2 µg/mL	–	0.5 µg/mL (≈ 1.51 µM)	0.5 µg/mL (≈ 1.51 µM)	–	–	–	–	–	–
CC[C@H]1OC(=O)[C@H](C)[C@@H](O[C@H]2C[C@@](C)(OC)[C@@H](O)[C@H](C)O2)[C@H](C)[C@@H](O[C@@H]2O[C@H](C)C[C@H](N(C)C)[C@H]2O)[C@](C)(OC)C[C@@H](C)C(=O)[C@H](C)[C@@H](O)[C@]1(C)O [Clarithromycin, clarithromycin]	0.25 µg/mL (≈ 0.334 µM)	comparable	> 0.5 µg/mL	> 0.5 µg/mL	0.5 µg/mL (≈ 0.668 µM)	0.25 µg/mL (≈ 0.334 µM)	0.25 µg/mL (≈ 0.334 µM)	> 0.5 µg/mL	> 0.5 µg/mL	> 0.5 µg/mL	> 0.5 µg/mL	> 0.5 µg/mL	–	above the highest concentration tested	–	–	–	–
CC[C@@H](CO)NCCN[C@@H](CC)CO [Ethambutol, ethambutol]	2 µg/mL (≈ 9.79 µM)	comparable	> 8 µg/mL	> 8 µg/mL	> 8 µg/mL	4 µg/mL (≈ 19.6 µM)	4 µg/mL (≈ 19.6 µM)	> 8 µg/mL	8 µg/mL (≈ 39.2 µM)	4 to 8 µg/mL (≈ 19.6 to 39.2 µM)	4 µg/mL (≈ 19.6 µM)	4 µg/mL (≈ 19.6 µM)	–	–	30%	75%	reduced lux activity	–
NNC(=O)c1ccncc1 [Isoniazid, isoniazid]	0.06 µg/mL (≈ 0.438 µM)	–	> 0.5 µg/mL	> 0.5 µg/mL	> 0.5 µg/mL	0.06 µg/mL (≈ 0.438 µM)	0.06 µg/mL (≈ 0.438 µM)	> 0.5 µg/mL	0.13 µg/mL (≈ 0.948 µM)	0.13 µg/mL (≈ 0.948 µM)	0.13 µg/mL (≈ 0.948 µM)	0.13 µg/mL (≈ 0.948 µM)	–	–	50%	90%	reduced lux activity	–
CC1COc2c(N3CCN(C)CC3)c(F)cc3c(=O)c(C(=O)O)cn1c23 (centres unmarked) [OFX, ofloxacin]	–	–	–	–	–	–	–	–	–	–	–	–	substantially reduced lux activity	–	–	–	–	–
CO[C@H]1/C=C/O[C@@]2(C)Oc3c(C)c(O)c4c(O)c(c(/C=N/N5CCN(C)CC5)c(O)c4c3C2=O)NC(=O)/C(C)=C\C=C\[C@H](C)[C@H](O)[C@@H](C)[C@@H](O)[C@@H](C)[C@H](OC(C)=O)[C@@H]1C [Rifampin, rifampin]	0.03 µg/mL (≈ 0.0365 µM)	comparable	> 0.25 µg/mL	> 0.25 µg/mL	> 0.25 µg/mL	0.06 µg/mL (≈ 0.0729 µM)	0.06 µg/mL (≈ 0.0729 µM)	> 0.25 µg/mL	> 0.25 µg/mL	> 0.25 µg/mL	0.13 µg/mL (≈ 0.158 µM)	0.13 µg/mL (≈ 0.158 µM)	–	–	–	–	–	reduced rBCG-lux luminescence
[H]/N=C(/N)N[C@H]1[C@H](O)[C@@H](O)[C@H](O[C@@H]2O[C@@H](C)[C@](O)(C=O)[C@H]2O[C@@H]2O[C@@H](CO)[C@H](O)[C@@H](O)[C@@H]2NC)[C@@H](N/C(N)=N\[H])[C@@H]1O [Streptomycin, streptomycin]	0.25 µg/mL (≈ 0.43 µM)	comparable	> 2 µg/mL	1 µg/mL (≈ 1.72 µM)	0.5 µg/mL (≈ 0.86 µM)	0.25 µg/mL (≈ 0.43 µM)	0.25 µg/mL (≈ 0.43 µM)	> 2 µg/mL	0.5 µg/mL (≈ 0.86 µM)	0.5 µg/mL (≈ 0.86 µM)	0.25 µg/mL (≈ 0.43 µM)	0.25 µg/mL (≈ 0.43 µM)	–	–	–	–	–	–
